Measured values reported in BindingDB's records for patent US10550105 (Ribon Therapeutics, 2020).

Target: T1, Protein mono-ADP-ribosyltransferase TIPARP (Homo sapiens, UniProt Q7Z3E1)
T1 sequence (Q7Z3E1 whole entry): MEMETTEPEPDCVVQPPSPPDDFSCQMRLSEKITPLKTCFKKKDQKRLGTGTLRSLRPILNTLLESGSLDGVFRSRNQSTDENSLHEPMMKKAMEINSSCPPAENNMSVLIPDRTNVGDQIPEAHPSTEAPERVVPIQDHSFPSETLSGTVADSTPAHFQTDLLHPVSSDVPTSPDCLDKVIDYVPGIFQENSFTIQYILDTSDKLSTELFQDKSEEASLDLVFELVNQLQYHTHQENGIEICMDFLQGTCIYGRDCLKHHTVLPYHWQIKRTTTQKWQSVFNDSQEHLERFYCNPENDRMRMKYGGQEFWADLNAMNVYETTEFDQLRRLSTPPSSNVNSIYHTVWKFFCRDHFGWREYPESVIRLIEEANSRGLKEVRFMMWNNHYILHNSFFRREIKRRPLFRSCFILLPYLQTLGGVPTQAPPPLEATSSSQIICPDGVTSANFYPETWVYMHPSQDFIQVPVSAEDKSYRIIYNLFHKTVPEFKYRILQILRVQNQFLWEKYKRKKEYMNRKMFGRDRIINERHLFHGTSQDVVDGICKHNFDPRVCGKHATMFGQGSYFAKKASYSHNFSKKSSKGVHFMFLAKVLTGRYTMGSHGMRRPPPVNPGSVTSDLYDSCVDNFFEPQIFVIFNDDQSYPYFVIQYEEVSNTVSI
Assay: Enzymatic Assay for Inhibition of PARP7
Method: Displacement of Probe A, a biotinylated probe binding to the TIPARP active site, was measured using a time-resolved fluorescence energy transfer (TR-FRET) assay. 20 nL of a dose response curve of each test compound was spotted in black 384-well polystyrene proxiplates (Perkin Elmer) using a Mosquito (TTP Labtech). Reactions were performed in a 8 μL volume by adding 6 μL of TIPARP and Probe A in assay buffer (20 mM HEPES pH=8, 100 mM NaCl, 0.1% bovine serum albumin, 2 mM DTT and 0.002% Tween20), incubating with test compound at 25° C. for 30 min, then adding 2 μL of ULight-anti 6×His and LANCE Eu-W1024 labeled streptavidin (Perkin Elmer). The final concentrations of TIPARP and Probe A were 6 nM and 2 nM, respectively. […] The Hill Coefficient is normally allowed to float but may also be fixed at 1 in a 3-parameter fit. Y is the % inhibition and x is the compound concentration.

Row | Compound | IC50
1 | N#Cc1ccc(N2CCN(C(=O)/C=C\COC[C@H]3c4ccccc4CN3c3cn[nH]c(=O)c3C(F)(F)F)CC2)nc1 [US10550105, Example 79C] | < 100 nM
2 | N#Cc1ccc(N2CCN(C(=O)/C=C\COC[C@@H]3c4ccccc4CN3c3cn[nH]c(=O)c3C(F)(F)F)CC2)nc1 [US10550105, Example 79D] | < 100 nM
3 | C[C@@H](OCCC(=O)N1CCN(c2ccc(C#N)cn2)CC1)[C@@H]1CCCN1c1cn[nH]c(=O)c1C(F)(F)F [US10550105, Example 140B] | in the range around 550 nM
4 | O=C(c1cncc(OC[C@H]2c3ccccc3CN2c2cn[nH]c(=O)c2C(F)(F)F)c1)N1CCn2c(nnc2C(F)(F)F)C1 [US10550105, Example 372] | > 1000 nM
5 | O=C(c1cncc(OCC2c3ccccc3CN2c2cn[nH]c(=O)c2C(F)(F)F)c1)N1CCn2ncnc2C1 (stereo not given) [US10550105, Example 398] | < 100 nM
